Laboratory results published in PubChem BioAssay (NCI).
“And” between values parts separate entries of the source, which are not always exact repeats. Equal entries are not always repeated.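 Protocol summary: plate cells (96-well), add compound at 5 concentrations, incubate 48 h, interpolate endpoints linearly. GI50 is the concentration that inhibits growth by half. TGI marks complete inhibition of growth.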

System: MDA-MB-468 breast
Test: inhibition of tumour cell growth, NCI panel, 48 h

SMILES | GI50 | TGI
CN(C)CCN(C)c1ccc2ncc(C#Cc3cncc(C(=O)Nc4ccc(CN5CCN(C)CC5)c(C(F)(F)F)c4)c3)n2n1 | 3080 nM | 9910 nM
O=C(CCN1CCCC1)Nc1ccc2c(Nc3ccc(Br)cc3)c3ccccc3nc2c1 | 1720 nM | 3270 nM
C#Cc1cccc(Nc2ncnc3ccc(-c4cnc(N)nc4)cc23)c1 | 376 nM | 1770 nM
COc1ccc2[nH]cc(C3(c4c[nH]c5ccc(OC)cc45)C(=O)Nc4ccc(Cl)cc43)c2c1 | 2500 nM | 7850 nM
N#Cc1ccc(C(=O)c2cnn(-c3ccc(F)cc3)c2N)cc1 | > 25000 nM | > 25000 nM
COc1ccc(-c2nsc3c2NC(=O)CC3c2cccc(F)c2)cc1 (stereo unspecified) | 1940 nM | 6980 nM
COc1ccc2c(c1)C(=O)/C(=C/c1cccc(OCC(=O)c3ccc([N+](=O)[O-])cc3)c1)CO2 | 1580 nM | 3510 nM
CCCn1cc(/C=N\N=C2\C(=O)Nc3ccc(C)cc32)c2ccccc21 | 1690 nM | 5780 nM
CCCCNP1(NCCCC)=NP(NCCCC)(NCCCC)=NP(NCCCC)(NCCCC)=NP(NCCCC)(NCCCC)=N1 | 194 nM | 2910 nM
COc1ccc(C(=O)/C=C/c2c(C(F)(F)F)nc3ccccn23)cc1OC | 1810 nM | 5060 nM
Oc1ccccc1/C=N\Nc1ccccc1 | 4930 nM | 55800 nM
C=C1C(=O)O[C@H]2[C@H]1CC/C(CNC(=O)C(C)c1ccc(CC(C)C)cc1)=C\CC[C@@]1(C)O[C@@H]21 (stereo partly specified) | 1430 nM | 3120 nM
Cn1cc(-c2csc(-c3cn(CCCN4CCCCC4)c4ccc(Br)cc34)n2)c2cccnc21 | 1860 nM | 3550 nM
CCN(CC)CCOc1ccc(NC(=O)C(C(C)C)N2C(=O)/C(=C/c3ccc(Br)cc3)SC2=S)cc1 (stereo unspecified) | 1920 nM | 3940 nM
CC[C@H](C)C(=O)O[C@H]1CCC=C2C=C[C@H](C)[C@H](CC[C@@H]3C[C@@H](O)CC(=O)O3)[C@H]21 | 3130 nM | 11600 nM
CN(CCCCCCCCNc1ccnc2ccccc12)Cc1ccc(-c2ccc(-c3ccc(C#N)cc3)s2)cc1 | 69.8 nM | 1290 nM
COC1/C=C/OC2(C)Oc3c(C)c(O)c4c(O)c(c(/C=N/N(c5ccccc5)c5ccccc5)c(O)c4c3C2=O)NC(=O)C(C)=C/C=C/C(C)C(O)C(C)C(O)C(C)C(OC(C)=O)C1C (stereo unspecified) | 1840 nM | 7500 nM
CC[C@H](C)[C@H](NC(=O)[C@H]1CCCCN1C)C(=O)N(C)[C@H](C[C@@H](OC(C)=O)c1nc(C(=O)NC23C4C5C2C2C3C4C52C(=O)OC)cs1)C(C)C (stereo partly specified) | 0.428 nM and < 2.5 nM | 6.95 nM and < 2.5 nM
COc1ccc(C2CC(c3ccc4ccccc4c3)=NN2c2nc(O)c(C3=c4cc(Cl)ccc4=NC3=O)s2)cc1 (stereo unspecified) | 21 nM and < 5 nM | 
CCc1c2c(nc3ccc(OC(=O)OCc4ccc(B5OC(C)(C)C(C)(C)O5)cc4)cc13)-c1cc3c(c(=O)n1C2)COC(=O)[C@]3(O)CC | < 10 nM | 54.5 nM
CN(C)c1ccc2cc3c(cc2c1)Oc1ccccc1N3.[Cl][Zn][Cl] | 1090 nM | 3150 nM

SMILES | GI50 | TGI
COc1cc(C(=O)c2cnc(-c3ccc4cc[nH]c4c3)[nH]2)cc(OC)c1OC | 32.7 nM | 2660 nM
Cc1cnc(-c2ccc(-c3ccc(NC(=O)Nc4cccc(C(F)(F)F)c4)cc3F)c3c2C(=O)NC3)[nH]1 | 12600 nM | 31100 nM
COc1ccccc1-c1ccc2c(N)c(C(=O)c3ccc4c(c3)OCO4)sc2n1 | 2430 nM | 8640 nM
CN1CCN(C(=O)[C@@]2(C)CC[C@]3(C)CC[C@]4(C)C(=CC[C@@H]5[C@@]6(C)CC[C@H](OC(=O)c7cccnc7)C(C)(C)[C@@H]6CC[C@]54C)[C@@H]3C2)CC1 | 1710 nM | 3510 nM
O=C1c2c(c3c4ccccc4n(CCCCCCN4CCOCC4)c3c3[nH]c4ccccc4c23)C(=O)N1O | 1970 nM | 4690 nM
O=c1[nH][nH]c(=O)c2c(O)c(-c3ccccc3)ncc12 | 25200 nM and 48200 nM | 55800 nM and 235000 nM
N#Cc1ccc(O)c(C2=NCC(c3ccc(-c4ccccc4)cc3)O2)c1 (stereo unspecified) | 256 nM | 1810 nM
Fc1ccc(-c2c(-c3ccncc3)[nH]c3cccnc23)cc1 | 3780 nM | 24700 nM
O=c1oc2ccc(I)cc2c(=O)n1-c1ccc(I)cc1F | 521 nM | 2940 nM
CC(=O)OCC1OC([S-])C(OC(C)=O)C(OC(C)=O)C1OC(C)=O.[Au+].c1ccc(CN2[CH-]N(Cc3ccccc3)C(c3ccccc3)=C2c2ccccc2)cc1 | 1630 nM and 306 nM | 3410 nM and 1170 nM
O=C(C(=O)c1cccnc1)c1cccnc1 | > 100000 nM | > 100000 nM
CCN(CC)CCNc1ccc(N=Nc2cnc3ccccc3c2)c2ccccc12 | 1340 nM | 2640 nM
COc1ccc(Cl)cc1Nc1nc(C(F)(F)F)ccc1C(=O)N/N=C/c1ccccc1Cl | 1850 nM | 18500 nM
O=C1/C=C/[C@@H](O)[C@@H]2C[C@@H](O)C[C@H]2/C=C/CCC[C@H](CCc2ccc(NC(=S)Nc3ccc4c(c3)C(=O)OC43c4ccc(O)cc4Oc4cc(O)ccc43)cc2)O1 | 178 nM | 449 nM
CN(C)C[C@@H]1CCn2cc(c3ccccc32)C2=C(C(=O)NC2=O)c2cn(c3ccccc23)CCO1 | 2170 nM | > 10000 nM
O=C(Nc1cccc(-n2ccc3c(NC(=O)c4ccccc4)nccc32)c1)c1ccc(Cl)c(Cl)c1 | 176 nM | 903 nM
O=C1NC(c2cccc3ccccc23)Nc2ccccc21 (stereo unspecified) | 127 nM | > 100000 nM
Cc1ccc2c(c1)C(=O)/C(=C/c1cccc(OCC(=O)c3ccc(Cl)cc3)c1)CS2 | 2410 nM | 7070 nM
CC1=C[C@H]2O[C@@H]3C[C@H]4OC(=O)/C=C\C=C\[C@H]([C@@H](C)O)OCC/C(C)=C/C(=O)OC[C@@]2(CC1)[C@]4(C)[C@]31CO1 | 3.56 nM | 12.4 nM
CCCCCCCCCCCCSC1=CC(=O)C=CC1=O | 7090 nM | > 34600 nM
